The record followed here is patent US9890147B2 (BAYER PHARMA AKTIENGESELLSCHAFT, priority 2012, dated 2018).

The structures appear in SMILES notation.

The target in one experiment is T1, BRD4 (BD1) (Homo sapiens, UniProt O60885).
T1 construct: with relatively long constructs also being possible, preferably amino acids 44-168; made in house; host or cells: E. coli
Kind of experiment: Binding assay BRD4/acetylated peptide H4 (TR-FRET protein-protein interaction assay). The essentials:
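Displacement of biotin-Ac-H4 peptide from His6-tagged BRD4(BD1), final usually 10 nM, read as Eu-streptavidin to anti-His-XL665 TR-FRET (665/620 nm). Compounds tested at 11 doses up to 20 μM in duplicate, pH 7.5 HEPES, 22 °C then 4 °C incubation; IC50 by 4-parameter regression.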
On the technique in general: In TR-FRET formats the signal depends on donor and acceptor labels being close together.

In the next experiment the test system is MOLM-13 cells. Kind of experiment: Cell proliferation assay (alamarBlue), MOLM-13. Type of experiment: cell-based. The following applies: Homo sapiens, 96 hours incubation, inhibition of cell proliferation. The method, boiled down:
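IC50 = concentration giving 50% growth inhibition relative to buffer-treated cells, after subtracting baseline fluorescence taken before dosing. Compound applied at 1E-5 to 1E-8 M for 96 h at 37 °C in RPMI1640 with 10% FCS; alamarBlue signal at 530/590 nm.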

As for `CNC(=O)N1N=C(c2ccc(N3CCC(NC(C)=O)CC3)cc2)c2cc(OC)c(OC)cc2CC1C` (racemic) [Example 182, (±)-1-[4-(4-acetamidopiperidin-1-yl)phenyl]-7,8-dimethoxy-N,4-dimethyl-4,5-dihydro-3H-2,3-benzodiazepine-3-carboxamide], the figures for the IC50 on BRD4 (BD1) and in the experiment on MOLM-13 cells were 50 nM and 400 nM, respectively.
The matching figures for `CNC(=O)N1N=C(c2ccc(N3CC[C@H](O)C3)cc2)c2cc(OC)c(OC)cc2CC1C` (mixture of isomers) [Example 190, (±)-1-{4-[(3S)-3-hydroxypyrrolidin-1-yl]phenyl}-7,8-dimethoxy-N,4-dimethyl-4,5-dihydro-3H-2,3-benzodiazepine-3-carboxamide]: 90 nM and 80 nM.
Take `CNC(=O)N1N=C(c2ccc(N3CCC(C)(NC(=O)OC(C)(C)C)CC3)cc2)c2cc(OC)c(OC)cc2CC1C` (racemic) [Example 191, (±)-tert-butyl (1-{4-[7,8-dimethoxy-4-methyl-3-(methylcarbamoyl)-4,5-dihydro-3H-2,3-benzodiazepin-1-yl]phenyl}-4-methylpiperidin-4-yl)carbamate]: the results for the IC50 at BRD4 (BD1) and with MOLM-13 cells were 70 nM and 170 nM, respectively.
The matching figures for `CNC(=O)N1N=C(c2ccc(N3C[C@@H](C)NC[C@@H]3C)cc2)c2cc(OC)c(OC)cc2CC1C` (mixture of isomers) [Example 192, (±)-1-{4-[(2S,5R)-2,5-dimethylpiperazin-1-yl]phenyl}-7,8-dimethoxy-N,4-dimethyl-4,5-dihydro-3H-2,3-benzodiazepine-3-carboxamide]: 90 nM and 270 nM.
In the same order, the values of `CNC(=O)N1N=C(c2ccc(N3CCN(CC(F)F)CC3)cc2)c2cc(OC)c(OC)cc2CC1C` (racemic) [Example 193, (±)-1-{4-[4-(2,2-difluoroethyl)piperazin-1-yl]phenyl}-7,8-dimethoxy-N,4-dimethyl-4,5-dihydro-3H-2,3-benzodiazepine-3-carboxamide] are 90 nM and 110 nM.
In the same order, the values of `CCOc1cc2c(cc1OCC)C(c1ccc(N3CCN(C)CC3)cc1)=NN(C(=O)NC)C(C)C2` (racemic) [Example 200, (±)-7,8-Diethoxy-N,4-dimethyl-1-[4-(4-methylpiperazin-1-yl)phenyl]-4,5-dihydro-3H-2,3-benzodiazepine-3-carboxamide] are 500 nM and 180 nM.
In the case of `CCC1Cc2cc(OC)c(OC)cc2C(c2ccc(N3CCN(S(C)(=O)=O)CC3)cc2)=NN1C(=O)NC` (racemic) [Example 203, (±)-4-ethyl-7,8-dimethoxy-N-methyl-1-{4-[4-(methylsulphonyl)piperazin-1-yl]phenyl}-4,5-dihydro-3H-2,3-benzodiazepine-3-carboxamide], the IC50 at BRD4 (BD1) stood at 840 nM; with MOLM-13 cells, 3310 nM.
In the same order, the values of `CNC(=O)N1N=C(c2ccc(N3CCS(=O)(=O)CC3)cc2)c2cc(Cl)c(OC(F)(F)F)cc2CC1C` (racemic) [Example 210, (±)-8-chloro-1-[4-(1,1-dioxidothiomorpholin-4-yl)phenyl]-N,4-dimethyl-7-(trifluoromethoxy)-4,5-dihydro-3H-2,3-benzodiazepine-3-carboxamide] are 250 nM and 170 nM.
As for `CNC(=O)N1N=C(c2ccc(N3CCC(O)CC3)cc2)c2cc(Cl)c(OC(F)(F)F)cc2CC1C` (racemic) [Example 212, (±)-8-chloro-1-[4-(4-hydroxypiperidin-1-yl)phenyl]-N,4-dimethyl-7-(trifluoromethoxy)-4,5-dihydro-3H-2,3-benzodiazepine-3-carboxamide], the concentration for half-maximal inhibition (IC50) on BRD4 (BD1) came out at 310 nM; in the experiment on MOLM-13 cells, 820 nM.
The matching figures for `CNC(=O)N1N=C(c2ccc(N3CCN(C)CC3)cc2)c2cc(Cl)c(OC(F)(F)F)cc2CC1C` (racemic) [Example 213, (±)-8-chloro-N,4-dimethyl-1-[4-(4-methylpiperazin-1-yl)phenyl]-7-(trifluoromethoxy)-4,5-dihydro-3H-2,3-benzodiazepine-3-carboxamide]: 360 nM and 860 nM.
The matching figures for `CNC(=O)N1N=C(c2ccc(N3CCS(=O)(=O)CC3)cc2)c2cc(N3CCS(=O)(=O)CC3)c(OC(F)(F)F)cc2CC1C` (racemic) [Example 215, (±)-8-(1,1-dioxidothiomorpholin-4-yl)-1-[4-(1,1-dioxidothiomorpholin-4-yl)phenyl]-N,4-dimethyl-7-(trifluoromethoxy)-4,5-dihydro-3H-2,3-benzodiazepine-3-carboxamide]: 380 nM and 2270 nM.
For `CNC(=O)N1N=C(c2ccc(Cl)cc2)c2cc(N3CCS(=O)(=O)CC3)c(OC(F)(F)F)cc2CC1C` (racemic) [Example 216, (±)-1-(4-chlorophenyl)-8-(1,1-dioxidothiomorpholin-4-yl)-N,4-dimethyl-7-(trifluoromethoxy)-4,5-dihydro-3H-2,3-benzodiazepine-3-carboxamide], the IC50 on BRD4 (BD1) is 520 nM; with MOLM-13 cells it was 1030 nM.
The matching figures for `CNC(=O)N1N=C(c2ccc(N3CCN(CCO)CC3)cc2)c2ccc(OC(F)(F)F)cc2CC1C` (racemic) [Example 218, (±)-1-{4-[4-(2-hydroxyethyl)piperazin-1-yl]phenyl}-N,4-dimethyl-7-(trifluoromethoxy)-4,5-dihydro-3H-2,3-benzodiazepine-3-carboxamide]: 880 nM and 300 nM.
In the same order, the values of `CNC(=O)N1N=C(c2ccc(N3CCN(C)CC3)cc2)c2cc(OC)c(OC(F)(F)F)cc2CC1C` (racemic) [Example 219, (±)-8-methoxy-N,4-dimethyl-1-[4-(4-methylpiperazin-1-yl)phenyl]-7-(trifluoromethoxy)-4,5-dihydro-3H-2,3-benzodiazepine-3-carboxamide] are 370 nM and 570 nM.
The matching figures for `CCC1Cc2cc(OC)c(OC)cc2C(c2ccc(-c3c(C)nn(C)c3C)cc2)=NN1C(=O)NC` (racemic) [Example 220, (±)-4-ethyl-7,8-dimethoxy-N-methyl-1-[4-(1,3,5-trimethyl-1H-pyrazol-4-yl)phenyl]-4,5-dihydro-3H-2,3-benzodiazepine-3-carboxamide]: 490 nM and 2400 nM.
As for `CCC1Cc2cc(OC)c(OC)cc2C(c2ccc(-c3cn(C)nn3)cc2)=NN1C(=O)NC` (racemic) [Example 222, (±)-4-ethyl-7,8-dimethoxy-N-methyl-1-[4-(1-methyl-1H-1,2,3-triazol-4-yl)phenyl]-4,5-dihydro-3H-2,3-benzodiazepine-3-carboxamide], the values for the half-maximal inhibitory concentration (IC50) on BRD4 (BD1) and in the experiment with MOLM-13 cells were 960 nM and 2120 nM, respectively.
The matching figures for `CNC(=O)N1N=C(c2ccc(Cl)cc2)c2ccc(N3CCOC3=O)cc2CC1C` (racemic) [Example 230, (±)-1-(4-chlorophenyl)-N,4-dimethyl-7-(2-oxo-1,3-oxazolidin-3-yl)-4,5-dihydro-3H-2,3-benzodiazepine-3-carboxamide]: 240 nM and 230 nM.
In the same order, the values of `CNC(=O)N1N=C(c2ccc(Cl)cc2)c2ccc(-c3cn(C)nn3)cc2CC1C` (racemic) [Example 243, (±)-1-(4-chlorophenyl)-N,4-dimethyl-7-(1-methyl-1H-1,2,3-triazol-4-yl)-4,5-dihydro-3H-2,3-benzodiazepine-3-carboxamide] are 320 nM and 340 nM.
The matching figures for `COc1cc2c(cc1OC)C(c1ccc(N3CCN(C)CC3)cc1)=NN(C(C)=O)C(C)C2` (racemic) [Example 245, (±)-1-{7,8-Dimethoxy-4-methyl-1-[4-(4-methylpiperazin-1-yl)phenyl]-4,5-dihydro-3H-2,3-benzodiazepin-3-yl}ethanone]: 620 nM and 860 nM.
As to `COc1cc2c(cc1OC)C(c1ccc(-c3c(C)noc3C)cc1)=NN(C(C)=O)C(C)C2` (racemic) [Example 246, (±)-1-{1-[4-(3,5-dimethyl-1,2-oxazol-4-yl)phenyl]-7,8-dimethoxy-4-methyl-4,5-dihydro-3H-2,3-benzodiazepin-3-yl}ethanone], the IC50 was 330 nM at BRD4 (BD1) and 2060 nM in the experiment with MOLM-13 cells.
`CNC(=O)N1N=C(c2ccc(-c3nnc(C)o3)cc2)c2cc(OC)c(OC)cc2CC1C` (racemic) [Example 247, (±)-7,8-Dimethoxy-N,4-dimethyl-1-[4-(5-methyl-1,3,4-oxadiazol-2-yl)phenyl]-4,5-dihydro-3H-2,3-benzodiazepine-3-carboxamide]: the IC50 stood at 190 nM at BRD4 (BD1) and 570 nM in the experiment on MOLM-13 cells.
The matching figures for `CNC(=O)N1N=C(c2ccc(-c3nc(C)no3)cc2)c2cc(OC)c(OC)cc2CC1C` (racemic) [Example 248, (±)-7,8-Dimethoxy-N,4-dimethyl-1-[4-(3-methyl-1,2,4-oxadiazol-5-yl)phenyl]-4,5-dihydro-3H-2,3-benzodiazepine-3-carboxamide]: 190 nM and 140 nM.
For `CNC(=O)N1N=C(c2ccc(N3CCC(O)CC3)cc2)c2cc(OC(F)(F)F)ccc2CC1C` (racemic) [Example 251, (±)-1-[4-(4-hydroxy-1-piperidinyl)phenyl]-N,4-dimethyl-8-(trifluoromethoxy)-4,5-dihydro-3H-2,3-benzodiazepine-3-carboxamide], the IC50 on BRD4 (BD1) was 30 nM; with MOLM-13 cells, 100 nM.
The matching figures for `CNC(=O)N1N=C(c2ccc(Cl)cc2)c2cc(OC(F)(F)F)c(Cl)cc2CC1C` (single isomer, unassigned) [Example 15.1, 7-Chloro-1-(4-chlorophenyl)-N,4-dimethyl-8-(trifluoromethoxy)-4,5-dihydro-3H-2,3-benzodiazepine-3-carboxamide]: 450 nM and 3050 nM.

Usually IC50 stands for the point on the concentration scale where inhibition reaches its midpoint. Low values mean greater potency, high ones weaker potency.
